# Test results published in patent US5206254A, “β-carbonyl-carboxyamides of 1,3-thiazolidines” (Boehringer Mannheim Italia S.p.A., priority 1988, dated 1993).
# Where a name gives a salt, the structure may show the parent alone.
# How the values were obtained:
# cough strokes = assay: Long lasting persistence of the antitussive action; format: in vivo, guinea pig; conditions: 30 mg/Kg os
# From the text: (§1) Cough strokes are provoked by electrical stimulation of the guinea pig tracheal mucosa. according to Cavanaugh et al., (Arch. Ing. Pharmacodyn., 220, 258, 1976). Cough strokes are stimulated both before (i.e. in the absence of drug treatment) and one hour after the drug administration. […] A group of six animals is used at each dose level; this test is particularly useful for the evaluation of long lasting effects until and after three hours from the administration.
# The results showing the long lasting persistance of the antitussive action is reported in Table 3 in comparison with codeine phosphate; all the substances are administered at 30 mg/Kg by oral route.
# [1] = tested on: airways hyperreactivity, pulmonary inflation pressure (PIP); assay: Airway hyperreactivity (PIP increase after autacoid challenge) after tobacco smoke exposure; format: in vivo, guinea pig (male); conditions: for prevention/inhibition of airway hyperreactivity (words): compounds: oral 20-60, i.v. 0.25-5, s.c. 2-15 mg/Kg, 6 MPHE 10-50 mg/Kg i.m., DSCG 20-100 mg/Kg i.m., salbutamol 0.5 mg/Kg i.v.
# Procedure: In order to show this surprising pharmacological property, the compounds of the invention were tested in a bronchial hyperreactivity animal model recently developed (see Omini C. et al., 23rd Ann. Med: S.E.P.C.R., Athens 20-24th June 1988, Abstract 15S Eur. J. Resp. Dis. in press).
# The airways hyperreactivity is measured as abnormal increase of the pulmonary inflation pressure (PIP) caused by the exacerbate bronchconstrictive response that follows to an autocoid challenge after active forced tobacco smoke exposure for a 10 minutes period. The abnormal PIP increase is compared with the PIP increase observed, in the same animal, before tobacco smoke, and after autacoids challenge. Male guinea pigs (400-450 g b.w.) anaesthetized with ethylurethane and pancuronium bromide were used; the recording of PIP is performed in accordance with Konzett and Rossler methods (Naumm. Schiedeberg Arch. Exp. Path/Pharmacol. 195, 71, 1940). To evidentiate such bronchial smooth muscle hyperreactivity suitable autocoids are acetylcholine, histamine, serotonine, bradykinins.
# Male guinea pigs (400-450 g) are anaesthetized with ethylurethane (i.p.) and pancuronium bromide (i.v.): the trachea is cannulated and the lungs are ventilated at constant volume by connection with "Rodent respirator" Basile apparatus mod. 7025. The pulmonary inflation pressure (PIP) is measured by connection to a side-warm of the tracheal cannula of a Bell and Howell pressure transducer (mod. P 17570) that is connected to a Beckmann (mod. R 611) dynograph. The right jugular vein is catheterized for i.v. injection of autacoids and drugs. The pharmacological experiment starts with the treatment of the animal with the autocoids (for example acetylcholine by i.v. route in the interval 2.5-10 mcg/kg) in order to induce a reversible bronchoconstruction response, measured by an increase of the pulmonary inflation pressure (PIP). This increase is recorded and it is considered to represent the basal value of the animal bronochoconstrictor response to the challenge with the autocoid.
# The animal is then actively exposed for a 10 minutes time period to the tobacco smoke of alighted cigarette (directly inspired by the animal). Afterwards the animal is challenged again with the autocoid, using the dosage previously injected for evokating the basal bronchoconstrictor response. The novel challenge induces an exacerbate bronochoconstrictory response and the airway hyper-reactivity is measured as the differential increase in the PIP after tobacco smoke exposure in respect to the basal value. The challenge may be repeated in the time, (2-3 hours after smoke exposure, too) until reproducible hyper-reactive responses are obtained or at different time from tobacco exposure.
# (§2) A substance may be administered by i.v., oral, subcutaneous or intramuscular route at different times before tobacco smoke exposure. A compound is considered effective when it is able to prevent almost completely the exacerbate differential increase in the PIP and normalize the BAL cell cytologic pattern at the same dose level.
# Differential increases of the pulmonary inflation pressure over the basal value after autacoid challenges, ranging from 150-200% are observed after smoke exposure in the animal control group (i.e. in the absence of any pharmacological treatment).
# Drug treatment may be performed using different routes: intravenous, oral, subcutaneous and/or intramuscular; the substances may be administered at different times before smoke exposure and at different dose levels.
# Dose related responses have been determined for reference drugs such as 6β-methyl-prednisolone-21-hemisuccinate sodium salt (6MPHE, by i.m. route, 7 hrs. b.s.l.), sodium dichromoglycate (DSCG, by i.m. route, 2 hrs. b.s.e.) and salbutamol (by i.v. route, 20 minutes before smoke exposure); the results reported in table 4, are expressed as % protection from hyperreactive reaction. […]
# [2] = Acute toxicity (LD50) in rats, oral; conditions: rat, in vivo, 14th day of observation, read-out: DL50
# Procedure: The compounds of the invention are therapeutically useful substances, practically free of acute, subacute or chronic toxic effects. LD50 values, usually exceeding 1 g/kg body weight are measured in mice and in rats after oral and intraperitoneal (i.p.) administration of the compounds of the invention. Only N-diethylaminoethylamino, N'-[(R,S)-2-(2-methoxyphenoxymethyl)-1,3-thiazolidine]-malondiamide and N-β-pyridylmethylamino-N'-[(R,S)-2-(2-methoxy-phenoxy-methyl)-1,3-thiazolidine]-malondiamide show DL50 values of 0.25 and 0.85 g/Kg respectively after oral administration to rats at the 14th day of observation.
# [3] = tested on: cough strokes provoked by electrical stimulation of the guinea pig tracheal mucosa; assay: Electrically stimulated cough stroke test (Cavanaugh et al.); format: in vivo; conditions: for Percent reduction of cough strokes: 15 mg/kg os, one hour after drug
# From the text: Table 2 refers to results with the compounds of formula (I) in the electrically stimulated cough stroke test, in comparison with codeine phosphate.
# as §1
# [4] = tested on: cytologic pattern of BAL fluids; assay: Cytology of bronchoalveolar lavage (BAL) fluids after tobacco smoke exposure; format: in vivo, guinea pig (male); conditions: smoke-exposed animals; 6 MPHE 50 mg/Kg, DSCG 100 mg/Kg, salbutamol 0.5 mg/Kg
# From the text: Cytologic studies of the bronochoalveolar lavage (BAL) fluids of the animals, exposed to tobacco smoke and untreated with drugs, show a statistically significant increase of the overall cell counts. Specifically, the number of epithelial cells and of eosinophils is increased, in respect to the cell content of unexposed animals.
# At the end of the experiment and/or at a desired time after smoke exposure, the animal is disconnected, and the broncho-alveolar contents are examined by lavages, injecting in the trachea physiological […] solutions (10 ml×3 times). These BAL fluids are combined, centrifuged for 15 minutes at 150 g to give pellets that are suspended in physiological saline (1 ml). The total cell number of BAL fluid is counted in a Burcher camera.
# Differential cell counts are made from centrifugated preparations stained with Diff-Quick® counting at least 300 cells for each sample and the % number of epithelial cells, eosinophils, neutrophils, lymphocytes and macrophages are determined.
# as §2
# [5] = tested on: cough strokes, evokated by the two experimental models; assay: In vivo experiments with naloxone in the two cough models; design: species or system guinea pig
Compound,"Percentage reduction of cough strokes during treatment, 1 h (cough strokes) [%]","Percentage reduction of cough strokes during treatment, 2 h (cough strokes) [%]","Percentage reduction of cough strokes during treatment, 3 h (cough strokes) [%]",prevention/inhibition of airway hyperreactivity (words) [1],Percent reduction of cough strokes [3] [%],other results
COc1ccccc1OCC1SCCN1C(=O)CC(=O)NCc1cccnc1 (stereo not shown),80,67,60,–,–,–
"COc1ccccc1OCC1SCCN1C(=O)CC(=O)O (racemic) [Compound 10, (R,S)-2-(2-methoxy-phenoxymethyl)-3-carboxyacetyl-1,3-thiazolidine]",–,–,–,effective inhibitors of the hyperreactive reaction,–,–
"CNC(=O)CC(=O)N1CCSC1COc1ccccc1OC (racemic) [Compound 11, N-methylamino-N-[(R,S)-2-(2-methoxy-phenoxymethyl)-1,3-thiazolidine]-malondiamide]",24,48,60,–,–,–
"CCN(CC)CCNC(=O)CC(=O)N1CCSC1COc1ccccc1OC (racemic) [Example 14, N-(diethylaminoethyl), N'-[(R,S)-2-(2-methoxy-phenoxymethyl)-1,3-thiazolidine]-malondiamide]",–,–,–,–,–,LD50 at 336 h [2]: 250 mg/kg
"COc1ccccc1OCC1SCCN1C(=O)CC(=O)NCc1cccnc1 (racemic) [Table 5 3, N-β-pyridylmethyl, N'-[(R,S)-2-(2-methoxy-phenoxymethyl)-1,3-thiazolidine]-malondiamide]",–,–,–,effective inhibitors of the hyperreactive reaction,–,LD50 at 336 h [2]: 850 mg/kg
"COc1ccc2c3c1O[C@H]1[C@@H](O)C=C[C@H]4[C@@H](C2)N(C)CC[C@@]341 [Codeine phosphate, reference compound]",77,53,46,–,58,–
"C[C@H]1C[C@@H]2[C@H]([C@@H](O)C[C@@]3(C)[C@H]2CC[C@]3(O)C(=O)COC(=O)CCC(=O)O)[C@@]2(C)C=CC(=O)C=C12 [Compound 6MPHE, 6α-methyl-prednisolone-21-hemisuccinatesodium salt]",–,–,–,preventing airway hyperreactivity,–,"% protection from hyperreactive reaction ([1]; 6MPHE 10 mg/kg i.m., 7 hrs before smoke exposure): 65%; % protection from hyperreactive reaction ([1]; 6MPHE 25 mg/kg i.m., 7 hrs before smoke exposure): 85%; % protection from hyperreactive reaction ([1]; 6MPHE 50 mg/kg i.m., 7 hrs before smoke exposure): 100%; prevention/inhibition of airway hyperreactivity (words) ([1]; listed as 6α-methyl-prednisolone- 21-hemisuccinatesodium salt (6 MPHE)): effective; normalization of BAL fluid cytology [4]: able to normalize the cellular pattern in the BAL fluids"
O=C(O)c1cc(=O)c2c(OCC(O)COc3cccc4oc(C(=O)O)cc(=O)c34)cccc2o1 [DSCG],–,–,–,preventing airway hyperreactivity,–,"% protection from hyperreactive reaction ([1]; DSCG 25 mg/kg i.m., 2 hrs before smoke exposure): 27%; % protection from hyperreactive reaction ([1]; DSCG 50 mg/kg i.m., 2 hrs before smoke exposure): 64%; % protection from hyperreactive reaction ([1]; DSCG 100 mg/kg i.m., 2 hrs before smoke exposure): 100%; prevention/inhibition of airway hyperreactivity (words) ([1]; listed as Dichromoglycate (DSCG)): effective; normalization of BAL fluid cytology [4]: able to normalize the cellular pattern in the BAL fluids"
CC(C)(C)NCC(O)c1ccc(O)c(CO)c1 (stereo not shown) [Salbutamol],–,–,–,effective,–,"% protection from hyperreactive reaction ([1]; Salbutamol 5 mg/kg i.v., 20 minutes before smoke exposure): 90%; normalization of BAL fluid cytology [4]: fails to modify the smoke induced pathological changes of the BAL fluid cytology"
"C=CCN1CC[C@]23c4c5ccc(O)c4O[C@H]2C(=O)CC[C@@]3(O)[C@H]1C5 [naloxone, reference compound]",–,–,–,–,–,"protection against cough strokes by naloxone alone ([5]; 5 mg/kg s.c., both experimental models): unable to protect guinea pig against cough strokes"
"(+)-[2-(2-methoxyphenoxymethyl)-3-ethoxycarbonyl]-1,3-thiazolidine [Compound 8]",–,–,–,–,63,"ED50 ([3]; os, electrical stimulation (Table II)): 12 mg/kg"
"(R,S)-2-(2-methoxy-phenoxymethyl)-3-(3-oxo-butanoyl)-1,3-thiazolidine [Compound 6]",–,–,–,–,14,–
"(R,S)-2-(2-methoxy-phenoxymethyl)-3-ethoxycarbonylacetyl-1,3-thiazolidine [Compound 7]",70,60,40,–,18,"protective effect after naloxone pretreatment ([5]; naloxone 5 mg/Kg s.c. pretreatment, substance 30 mg/Kg os): complete protection against cough strokes; prevention/inhibition of airway hyperreactivity (words) ([1]; listed as (R,S)-2-(2-methoxyphenoxymethyl)-3-ethoxycarbonylacetyl-1,3-thiazolidine): highly effective; prevention/inhibition of airway hyperreactivity (words) ([1]; listed as (R,S)-2-[2-methoxy-phenoxymethyl)-3-ethoxycarbonylacetyl-1,3-thiazolidine): effective inhibitors of the hyperreactive reaction"
